According to patent publication US20250101046A1 (TAE Life Sciences LLC, priority 2023, published 2025):

Columns and labels:
[1] = Solubility in water / need of fructose to aid solubility; assay type: physicochemical
intracranial tumor = conditions: BNCT, beam directed to surgically exposed intracranial tumor; cited from earlier work

Row | requirement of fructose to aid solubility [1] | solubility in water ([1]; water) | threshold of solubility compared to BPA ([1]; with fructose, versus BPA) | Compound | 5-year survival rate (intracranial tumor) [%]
1 | does require fructose | very soluble | much higher compared to BPA | COc1ccc(C[C@H](N)C(=O)O)cc1[10B](O)O [TC221, (S)-2-(amino)-3-(4-methoxy-3-boronic acid)propionic acid] | –
2 | – | – | – | undecahydro-closo-dodecaboratethiol [BSH] | 58
